Laboratory results taken from patent US11185100B2 (priority 2014, dated 2021).
Where two headings read alike, the source gives them in different places.

What was measured:
T1R1/T1R3 receptor [1] = biological target: T1, T1R1/T1R3 receptor (Felis catus, UniProt E3UMS2); assay: Agonist screening of transmembrane compounds on T1R1/T1R3 in HEK293 cells (Example 8); format: cell-based, cat; details: for T1R1/T1R3 agonist: transmembrane compound tested at 0.01, 0.1 and 1 mM, HEK293 cells expressing T1R1/T1R3, calcium readout
Description: (§1) Agonist Screening Method: HEK293 cells that stably express T1R3 and inducibly express T1R1 were exposed to a transmembrane compound. Activation of the T1R1/T1R3 receptor was detected by a change in intracellular calcium levels using a calcium sensitive fluorescent dye and/or a luminescent reporter system. […] A FLIPR® Tetra or a FlexStation® 3 was used for data capture.
Each transmembrane compound was tested at concentrations of 0.01 mM, 0.1 mM, and 1 mM. […] To generate the dose response curves, the transmembrane compound was tested at concentrations of between 0.0001 mM and 1.0 mM in the presence of GMP and Ala.

T1R1/T1R3 receptor [2] = biological target: T1, T1R1/T1R3 receptor; assay: PAM screening of transmembrane compounds with GMP and Ala on T1R1/T1R3 in HEK293 cells (Example 8); format: cell-based, cat; details: for T1R1/T1R3 PAM: transmembrane compound at 0.01, 0.1 and 1 mM with GMP + Ala mixtures (T1-T4), PAM if response greater than sum of compound alone and GMP+Ala alone
Description: as §1, with “PAM” for “Agonist”, “to” for “to a”, “compound alone or in combination with Ala and GMP to activate the umami receptor.” for “compound.”
Dose response curves were generated for each transmembrane compound at concentrations of 0 (buffer only), 0.01, 0.1 and 1 mM, wherein each of the three concentrations of transmembrane compound was tested in combination with 0.03 mM GMP+100 mM Ala (T1); 0.6 mM GMP+10 mM Ala (T2); 0.1 mM GMP+60 mM Ala (T3) and 0.3 mM GMP+60 mM Ala (T4). The T4 mixture was also tested in a 2-fold dilution series (the T4(X) Concentration). In these experiments, the first test concentration was 2× (2 times) the T4 concentration. The subsequent test concentrations were 2-fold dilutions from that (1×, 0.5× etc.). This dilution series was tested with or without the addition of the test compound at a constant 0.3 mM concentration.
Activation of the umami receptor was also determined in the presence of 1 mM GMP+100 mM Ala to generate a “maximum” umami receptor activation level.

cat T1R1/T1R3 receptor = cat T1R1/T1R3 receptor (Felis catus, UniProt E3UMS2); assay: cell-based; format: cell-based
Description: (§2) Methods: HEK293 cells that stably express T1R3 and inducibly express T1R1 were exposed to nucleotide derivatives alone or in combination with one or more amino acids and/or one or more nucleotides to activate the umami receptor. Activation of the T1R1/T1R3 receptor was detected by a change in intracellular calcium levels using a calcium sensitive fluorescent dye and/or a luminescent reporter system. Cells that express T1R3 but not T1R1 were used as a control. A FLIPR® Tetra or a FlexStation® 3 was used for data capture.

T1R1/T1R3 receptor [3] = biological target: T1, T1R1/T1R3 receptor; assay: Activation of T1R1/T1R3 receptor by transmembrane compounds alone or with alanine, IMP, GMP, phenylalanine; HEK293 cells, calcium fluorescence (Example 5); format: cell-based, cat; details: read-out: EC50 (effect with 0.2 mM IMP); Table 20 controls; in the presence of 0.2 mM IMP
Description: as §2, with “transmembrane compounds” for “nucleotide derivatives”, “dye.” for “dye and/or a luminescent reporter system.”
(§3) In each experiment, serial dilutions of up to 10 mM of the transmembrane compound were added to the T1R1/T1R3-expressing cells.

T1R1/T1R3 receptor [4] = biological target: T1, T1R1/T1R3 receptor; assay: Activation of T1R1/T1R3 receptor by transmembrane compounds and nucleotide derivatives, conducted as in Examples 1, 2 and 5 (Example 7); format: cell-based, cat; details: for Max resp % of IMP +Alanine (20 mM): hek293 cells; for Activity: modulation of T1R1/T1R3
Description: as §2, with “alone” for “alone or in combination with one or more amino acids and/or one or more nucleotides”, “dye.” for “dye and/or a luminescent reporter system.”
as §2
as §2, with “transmembrane compounds” for “nucleotide derivatives”, “dye.” for “dye and/or a luminescent reporter system.”
as §3

Row | Compound | T1R1/T1R3 agonist (T1R1/T1R3 receptor [1]) | T1R1/T1R3 PAM (T1R1/T1R3 receptor [2]) | Max resp % of Ala +IMP (0.2 mM) (T1R1/T1R3 receptor [4]) | Max resp ΔF/F +IMP (0.2 mM) (T1R1/T1R3 receptor [4]) | Thres +IMP (0.2 mM) (T1R1/T1R3 receptor [4]) [mM] | Max resp ΔF/F +Alanine (20 mM) (T1R1/T1R3 receptor [4]) | Thres +Alanine (20 mM) (T1R1/T1R3 receptor [4]) [mM] | Max resp % of IMP +Alanine (20 mM) (T1R1/T1R3 receptor [4]) | Activity (T1R1/T1R3 receptor [4]) | other results
1 | COC(=O)[C@@H](Cc1ccccc1)NCc1ccccc1.Cl [N-Benzyl-D-Phenylalanine methyl ester hydrochloride] | – | – | – | – | – | – | – | – | – | agonist profile assessment (activation of T1R1/T1R3 by the compound alone) (T1R1/T1R3 receptor [1]): agonist; PAM profile assessment (activation of T1R1/T1R3 in the presence of GMP and Alanine) (T1R1/T1R3 receptor [2]): PAM activity
2 | O=C(CN1C(=O)C(=O)N(Cc2ccccc2)C1=O)c1ccc(Br)cc1 [Formula 3, 1-benzyl-3-(2-(4-bromophenyl)-2-oxoethyl)imidazolidine-2,4,5-trione] | No | No | – | – | – | – | – | – | – | –
3 | Cl.N[C@@H](Cc1ccccc1)C(=O)OCc1ccccc1 [Formula 20, L-Phenylalanine benzyl ester hydrochloride] | Yes | Yes | – | – | – | – | – | – | – | –
4 | N#Cc1cccc(NC(=O)CN2C(=O)C(=O)N(Cc3ccccc3)C2=O)c1 [Formula 9, 2-(3-benzyl-2,4,5-trioxoimidazolidin-1-yl)-N-(3-cyanophenyl)acetamide] | No | No | – | – | – | – | – | – | – | –
5 | C[C@H](N)C(=O)O [L-Alanine, reference compound] | – | – | 100.0 % of Ala | 0.7775 ΔF/F | 3.0 | – | – | – | – | EC50 (cat T1R1/T1R3 receptor; read-out: EC50): 13.6 ± 4.3 mM; EC50 (T1R1/T1R3 receptor [3]): 13.6 ± 4.3 mM
6 | O=C1CC(=O)N(Cc2ccccc2)C(=O)N1Cc1ccccc1 [1,3-dibenzylpyrimidine-2,4,6(1H,3H,5H)-trione] | – | – | 35.7 % of Ala | 0.2775 ΔF/F | 0.1 | 0.2925 ΔF/F | 0.1 | 42.7 % of IMP | active | agonist profile assessment (activation of T1R1/T1R3 by the compound alone) (T1R1/T1R3 receptor [1]): agonist activity
7 | Nc1nc2c(ncn2[C@@H]2O[C@H](COP(=O)(O)OP(=O)(O)O)[C@@H](O)[C@H]2O)c(=S)[nH]1 [6-Thioguanosine-5′-O-diphosphate] | – | – | 9.3 % of Ala | 0.0720 ΔF/F | – | 1.0470 ΔF/F | 0.03 | 152.8 % of IMP | active | Max resp. (ΔF/F) (cat T1R1/T1R3 receptor): 1.047 ΔF/F; Threshold (cat T1R1/T1R3 receptor): 0.03 mM; Max. resp. % of IMP (cat T1R1/T1R3 receptor; hek293 cells): 152.8 % of IMP; EC50 (cat T1R1/T1R3 receptor; in the presence of 20 mM alanine, read-out: EC50- with Ala): 0.18 ± 0.02 mM
8 | N[C@@H](Cc1ccccc1)C(=O)O [L-Phenylalanine, reference compound] | – | – | 75.9 % of Ala | 0.5900 ΔF/F | 0.1 | – | – | – | – | –
9 | O=C(NCCc1ccccc1)c1ccc2c(c1)OCO2 [N-phenethylbenzo[d][1,3]dioxole-5-carboxamide] | – | – | 92.0 % of Ala | 0.7150 ΔF/F | 0.01 | 0.0775 ΔF/F | 1.0 | 11.3 % of IMP | active | –
10 | O=C(CN1C(=O)C(=O)N(Cc2ccccc2)C1=O)c1ccc2c(c1)OCCCO2 [1-benzyl-3-(2-(3,4-dihydro-2H-benzo[b][1,4]dioxepin-7-yl)-2-oxoethyl)imidazolidine-2,4,5-trione] | – | – | – | – | – | – | – | – | – | PAM profile assessment (activation of T1R1/T1R3 in the presence of GMP and Alanine) (T1R1/T1R3 receptor [2]): PAM activity
